Values of other authors as cited in patent EP4015634A1, “SIRNA AND COMPOSITIONS FOR PROPHYLACTIC AND THERAPEUTIC TREATMENT OF VIRUS DISEASES” (SYLENTIS, S.A.U., priority 2020, dated 2022).
*1 amine or outer side, *2 acyl side, *3 side chain or, on linkers, in order; H or OH if unused. Where a SMILES comes first, the peptide text is derived from it. Bridges are numbered along the chain shown (N, C = ends). [ ]: non-standard residue; d: D form. The star is where a group is joined. X1 = CC[C@H](C)[C@@H](N[*:1])[C@@H](O)CC(=O)O[C@H](C(=O)[C@H](C)C(=O)[*:2])C(C)C; NMeY = CN[C@@H](Cc1ccc(O)cc1)C(=O)O; dNMeL = CN[C@H](CC(C)C)C(=O)O; Pyruvoyl = CC(=O)C(=O)*

Tests used:
patients with COVID-19 = details: phase I
SARS-CoV-2 = details: in vitro studies

**Q.** For `CC[C@H](C)[C@H]1NC(=O)[C@@H](NC(=O)[C@@H](CC(C)C)N(C)C(=O)[C@@H]2CCCN2C(=O)C(C)=O)[C@@H](C)OC(=O)[C@H](Cc2ccc(OC)cc2)N(C)C(=O)[C@@H]2CCCN2C(=O)[C@H](CC(C)C)NC(=O)[C@@H](C)C(=O)[C@H](C(C)C)OC(=O)C[C@@H]1O` [plitidepsin] (Pyruvoyl-P[dNMeL]T[X1]LP[NMeY](Me); ester 3-C), which primary safety endpoint (patients with COVID-19; patients with COVID-19 who required hospitalization) is on record?
**A.** met the primary safety endpoint

**Q.** What about the “preliminary secondary endpoints of efficacy” value (patients with COVID-19; treated patients) of the same compound?
**A.** substantial reduction in viral load and the C-reactive protein

**Q.** And the “SARS-CoV-2 viral load in vitro” value (SARS-CoV-2)?
**A.** reduced SARS-CoV-2 viral load at nanomolar concentrations
